Measured values published in patent publication US10239843B2 (CANCER RESEARCH TECHNOLOGY LIMITED, priority 2014, dated 2019).
Where two headings read alike, the source gives them in different places.

Target: Human Full Length PARG (Homo sapiens (Human), UniProt Q86W56)
Assay: PARG enzyme assay (TR-FRET)
Format: biochemical
[1] = read-out: PARG Biochem IC50 Geomean

Chain of Human Full Length PARG (Q86W56 whole entry): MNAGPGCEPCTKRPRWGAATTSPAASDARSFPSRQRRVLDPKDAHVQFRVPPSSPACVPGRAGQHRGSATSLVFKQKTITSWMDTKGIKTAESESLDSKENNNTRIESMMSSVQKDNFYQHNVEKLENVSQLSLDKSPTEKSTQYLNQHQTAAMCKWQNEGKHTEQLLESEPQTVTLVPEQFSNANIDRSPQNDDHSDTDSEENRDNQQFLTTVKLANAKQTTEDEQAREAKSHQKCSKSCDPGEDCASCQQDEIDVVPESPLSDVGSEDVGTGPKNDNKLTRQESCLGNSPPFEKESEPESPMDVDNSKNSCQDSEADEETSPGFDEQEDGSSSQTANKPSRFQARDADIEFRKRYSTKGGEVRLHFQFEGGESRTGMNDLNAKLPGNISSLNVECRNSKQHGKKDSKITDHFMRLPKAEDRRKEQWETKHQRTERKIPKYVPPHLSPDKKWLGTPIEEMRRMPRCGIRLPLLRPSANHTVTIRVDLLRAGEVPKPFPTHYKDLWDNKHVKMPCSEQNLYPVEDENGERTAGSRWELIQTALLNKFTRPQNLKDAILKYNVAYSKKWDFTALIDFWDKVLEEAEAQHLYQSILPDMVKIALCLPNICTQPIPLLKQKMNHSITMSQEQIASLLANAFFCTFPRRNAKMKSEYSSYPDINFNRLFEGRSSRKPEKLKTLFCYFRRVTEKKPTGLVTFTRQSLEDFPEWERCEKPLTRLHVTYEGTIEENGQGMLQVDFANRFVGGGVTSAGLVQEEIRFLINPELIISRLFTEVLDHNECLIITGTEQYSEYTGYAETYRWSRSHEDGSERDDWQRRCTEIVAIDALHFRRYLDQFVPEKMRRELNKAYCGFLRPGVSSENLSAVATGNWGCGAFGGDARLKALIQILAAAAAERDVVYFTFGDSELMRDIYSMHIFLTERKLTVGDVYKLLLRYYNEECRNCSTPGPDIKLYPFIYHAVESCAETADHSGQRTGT

| SMILES | IC50 [1] [nM] | IC50 (read-out: PARG Biochem IC50) [nM] |
| --- | --- | --- |
| Cc1cc(Cn2cc(CCCN(C)C)c3ccc(S(=O)(=O)NC4(C)CC4)cc3c2=O)on1 [Example 287, 4-[3-(dimethylamino)propyl]-N-(1-methylcyclopropyl)-2-[(3-methylisoxazol-5-yl)methyl]-1-oxo-isoquinoline-7-sulfonamide] | 1070 | – |
| Cc1cc(Cn2ncc3ccc(S(=O)(=O)NC4(C)CC4)cc3c2=O)on1 [Example 299, N-(1-Methylcyclopropyl)-3-[(3-methylisoxazol-5-yl)methyl]-4-oxo-phthalazine-6-sulfonamide] | 1270 | – |
| COC(=O)c1nn(Cc2cc(C)no2)c(=O)c2cc(S(=O)(=O)NC3(C)CC3)ccc12 [Example 301] | 836 | – |
| Cc1cc(Cn2nc(C(=O)O)c3ccc(S(=O)(=O)NC4(C)CC4)cc3c2=O)on1 [Example 302, 6-(N-(1-Methylcyclopropyl)sulfamoyl)-3-((3-methylisoxazol-5-yl)methyl)-4-oxo-3,4-dihydrophthalazine-1-carboxylic acid] | 6720 | – |
| CNC(=O)c1nn(Cc2cc(C)no2)c(=O)c2cc(S(=O)(=O)NC3(C)CC3)ccc12 [Example 303] | 800 | – |
| Cc1cc(Cn2cc(Br)c3ccc(S(=O)(=O)NC4(C)CC4)cc3c2=O)on1 [Example 307, 4-Bromo-N-(1-methylcyclopropyl)-2-[(3-methylisoxazol-5-yl)methyl]-1-oxo-isoquinoline-7-sulfonamide] | 2680 | – |
| Cc1cc(Cn2nc(C3CCCC3)c3ccc(S(=O)(=O)NC4(C)CC4)cc3c2=O)on1 [Example 309] | 2520 | – |
| COc1nn(Cc2cc(C)no2)c(=O)c2cc(S(=O)(=O)NC3(C)CC3)ccc12 [Example 312, 1-Methoxy-N-(1-methylcyclopropyl)-3-[(3-methylisoxazol-5-yl)methyl]-4-oxo-phthalazine-6-sulfonamide] | 1230 | – |
| Cc1cc(Cn2nc(CC3CCCCC3)c3ccc(S(=O)(=O)NC4(C)CC4)cc3c2=O)on1 [Example 314] | 1370 | – |
| COc1cccc(Cc2nn(Cc3cc(C)no3)c(=O)c3cc(S(=O)(=O)NC4(C)CC4)ccc23)c1 [Example 315] | 871 | – |
| CCOc1nn(Cc2cc(C)no2)c(=O)c2cc(S(=O)(=O)NC3(C)CC3)ccc12 [Example 316, 1-Ethoxy-N-(1-methylcyclopropyl)-3-[(3-methylisoxazol-5-yl)methyl]-4-oxo-phthalazine-6-sulfonamide] | 737 | – |
| Cc1cc(Cn2nc(OC3CCC3)c3ccc(S(=O)(=O)NC4(C)CC4)cc3c2=O)on1 [Example 319] | 859 | – |
| Cc1cc(Cn2nc(CC3CCC3)c3ccc(S(=O)(=O)NC4(C)CC4)cc3c2=O)on1 [Example 320] | 674 | – |
| Cc1cc(Cn2cc(Cc3ccc(F)cc3)c3ccc(S(=O)(=O)NC4(C)CC4)cc3c2=O)on1 [Example 322, 4-[(4-Fluorophenyl)methyl]-N-(1-methylcyclopropyl)-2-[(3-methylisoxazol-5-yl)methyl]-1-oxo-isoquinoline-7-sulfonamide] | 2100 | – |
| Cc1cc(Cn2nc(C(=O)N(C)C)c3ccc(S(=O)(=O)NC4(C)CC4)cc3c2=O)on1 [Example 326] | 8630 | – |
| Cc1cc(Cn2nc(C(=O)NCC3CCOCC3)c3ccc(S(=O)(=O)NC4(C)CC4)cc3c2=O)on1 [Example 331] | 795 | – |
| Cc1cc(Cn2nc(C(=O)NCC3CCN(C)CC3)c3ccc(S(=O)(=O)NC4(C)CC4)cc3c2=O)on1 [Example 333] | 781 | – |
| Cn1cc(Cn2c(=O)c3cc(S(=O)(=O)NC4(C)CC4)ccc3n(CCN3CCCC3=O)c2=O)cn1 [Example 334] | 4220 | – |
| CCOC(=O)C(F)n1c(=O)n(Cc2cc(C)no2)c(=O)c2cc(S(=O)(=O)NC3(C)CC3)ccc21 (stereo not shown) [Example 335] | 1050 | – |
| Cc1cc(Cn2c(=O)c3cc(S(=O)(=O)NC4(C)CC4)ccc3n(CC(C)O)c2=O)on1 (stereo not shown) [Example 338] | 523 | – |

| SMILES | IC50 [1] [nM] | IC50 (read-out: PARG Biochem IC50) [nM] |
| --- | --- | --- |
| Cc1cc(Cn2c(=O)c3cc(S(=O)(=O)NC4(C)CC4)ccc3n(CCN3CCN(C)CC3)c2=O)on1 [Example 341] | 511 | – |
| CC1(NS(=O)(=O)c2cc3c4c(cccc4c2)C(=O)NC3=O)CC1 [Example 447, N-(1-Methylcyclopropyl)-1,3-dioxo-benzo[de]isoquinoline-5-sulfonamide] | – | 3470 |
| Cc1cc(Cn2c(=O)c3cc(S(=O)(=O)NC4(C)CC4)ccc3n(CC(C)(C)F)c2=O)on1 [Example 453, 1-(2-Fluoro-2-methyl-propyl)-N-(1-methylcyclopropyl)-3-[(3-methylisoxazol-5-yl)methyl]-2,4-dioxo-quinazoline-6-sulfonamide] | – | 348 |
| CC1(NS(=O)(=O)c2ccc3[nH]c(=O)n(CCc4ccccn4)c(=O)c3c2)CC1 [Example 495, N-(1-Methylcyclopropyl)-2,4-dioxo-3-[2-(2-pyridyl)ethyl]-1H-quinazoline-6-sulfonamide] | – | 7070 |
| Cn1c(=O)n(CCc2ccccn2)c(=O)c2cc(S(=O)(=O)NC3(C)CC3)ccc21 [Example 498, 1-Methyl-N-(1-methylcyclopropyl)-2,4-dioxo-3-[2-(2-pyridyl)ethyl]quinazoline-6-sulfonamide] | – | 3920 |
| Cn1cnnc1Cn1c(=O)c2cc(S(=O)(=O)NC3(C)CC3)ccc2n(C)c1=O [Example 499, 1-Methyl-N-(1-methylcyclopropyl)-3-[(4-methyl-1,2,4-triazol-3-yl)methyl]-2,4-dioxo-quinazoline-6-sulfonamide] | – | 2460 |
| Cn1c(=O)n(Cc2nnc(C(F)(F)F)o2)c(=O)c2cc(S(=O)(=O)NC3(C)CC3)ccc21 [Example 501, 1-Methyl-N-(1-methylcyclopropyl)-2,4-dioxo-3-[[5-(trifluoromethyl)-1,3,4-oxadiazol-2-yl]methyl]quinazoline-6-sulfonamide] | – | 1610 |
| Cn1c(=O)n(Cc2cnc[nH]2)c(=O)c2cc(S(=O)(=O)NC3(C)CC3)ccc21 [Example 505, 3-(1H-Imidazol-4-ylmethyl)-1-methyl-N-(1-methylcyclopropyl)-2,4-dioxo-quinazoline-6-sulfonamide] | – | 3790 |
| CC(C)n1cc(Cn2c(=O)c3cc(S(=O)(=O)NC4(C)CC4)ccc3n(C)c2=O)cn1 [Example 507, 3-[(1-Isopropylpyrazol-4-yl)methyl]-1-methyl-N-(1-methylcyclopropyl)-2,4-dioxo-quinazoline-6-sulfonamide] | – | 4130 |
| Cn1nnnc1Cn1c(=O)c2cc(S(=O)(=O)NC3(C)CC3)ccc2n(C)c1=O [Example 508, 1-Methyl-N-(1-methylcyclopropyl)-3-[(1-methyltetrazol-5-yl)methyl]-2,4-dioxo-quinazoline-6-sulfonamide] | – | 2770 |
| CC(C)c1nnsc1Cn1c(=O)c2cc(S(=O)(=O)NC3(C)CC3)ccc2n(C)c1=O [Example 509, 3-[(4-Isopropylthiadiazol-5-yl)methyl]-1-methyl-N-(1-methylcyclopropyl)-2,4-dioxo-quinazoline-6-sulfonamide] | – | 7220 |
| Cn1c(=O)n(Cc2ccns2)c(=O)c2cc(S(=O)(=O)NC3(C)CC3)ccc21 [Example 510, 3-(Isothiazol-5-ylmethyl)-1-methyl-N-(1-methylcyclopropyl)-2,4-dioxo-quinazoline-6-sulfonamide] | – | 2290 |
| Cc1nonc1Cn1c(=O)c2cc(S(=O)(=O)NC3(C)CC3)ccc2n(C)c1=O [Example 511, 1-Methyl-N-(1-methylcyclopropyl)-3-[(4-methyl-1,2,5-oxadiazol-3-yl)methyl]-2,4-dioxo-quinazoline-6-sulfonamide] | – | 2060 |
| Cn1c(=O)[nH]c(=O)c2cc(S(=O)(=O)NC3(CF)CC3)ccc21 [Example 512, N-[1-(Fluoromethyl)cyclopropyl]-1-methyl-2,4-dioxo-quinazoline-6-sulfonamide] | – | 2950 |
| COCCn1c(=O)n(Cc2cc(C)no2)c(=O)c2cc(S(=O)(=O)NC3(CF)CC3)ccc21 [Example 527, N-[1-(Fluoromethyl)cyclopropyl]-1-(2-methoxyethyl)-3-[(3-methylisoxazol-5-yl)methyl]-2,4-dioxo-quinazoline-6-sulfonamide] | – | 208 |
| Cn1c(=O)n(CC(=O)c2ccncc2)c(=O)c2cc(S(=O)(=O)NC3(C)CC3)ccc21 [Example 528, 1-Methyl-N-(1-methylcyclopropyl)-2,4-dioxo-3-[2-oxo-2-(4-pyridyl)ethyl]quinazoline-6-sulfonamide] | – | 1740 |
| Cn1c(=O)n(CC(=O)c2cccs2)c(=O)c2cc(S(=O)(=O)NC3(C)CC3)ccc21 [Example 529, 1-Methyl-N-(1-methylcyclopropyl)-2,4-dioxo-3-[2-oxo-2-(2-thienyl)ethyl]quinazoline-6-sulfonamide] | – | 1050 |
| Cn1c(=O)n(CC(=O)c2ccccc2)c(=O)c2cc(S(=O)(=O)NC3(C)CC3)ccc21 [Example 530, 1-Methyl-N-(1-methylcyclopropyl)-2,4-dioxo-3-phenacyl-quinazoline-6-sulfonamide] | – | 1610 |
| Cn1c(=O)n(CC(=O)c2ccc(C#N)cc2)c(=O)c2cc(S(=O)(=O)NC3(C)CC3)ccc21 [Example 531, 3-[2-(4-Cyanophenyl)-2-oxo-ethyl]-1-methyl-N-(1-methylcyclopropyl)-2,4-dioxo-quinazoline-6-sulfonamide] | – | 3270 |
| Cn1c(=O)n(Cc2cncs2)c(=O)c2cc(S(=O)(=O)NC3(CF)CC3)ccc21 [Example 534, N-[1-(Fluoromethyl)cyclopropyl]-1-methyl-2,4-dioxo-3-(thiazol-5-ylmethyl)quinazoline-6-sulfonamide] | – | 578 |
